In the NIST ThermoML archive (doi:10.1016/j.jct.2015.08.014):

Assay: xn = mol fraction of the nth substance listed
Settings: 323.15 K, 100 kPa, Liquid; for electrical conductivity: Alternating current cell with electrodes; for mass density: Vibrating tube method

CCCC[N+]1(C)CCCC1.N#CN=C=[N-] [1-butyl-1-methylpyrrolidinium dicyanamide] + O=C1CCCO1
electrical conductivity [S/m]
Settings | Frequency=0.005454 MHz | Frequency=0.006 MHz | Frequency=0.00652174 MHz | Frequency=0.00694444 MHz | Frequency=0.0075 MHz | Frequency=0.008 MHz | Frequency=0.00857143 MHz | Frequency=0.00892857 MHz | Frequency=0.00961538 MHz | Frequency=0.01 MHz
x1 = 0.0463 | – | 2.01 | 2.01 | 2.01 | 2.01 | 2.01 | 2.01 | 2.01 | 2.01 | 2.01
x1 = 0.0987 | – | 3.08 | 3.08 | 3.08 | 3.08 | 3.08 | 3.08 | 3.08 | 3.08 | 3.08
x1 = 0.1449 | – | 3.57 | 3.57 | 3.57 | 3.57 | 3.57 | 3.57 | 3.57 | 3.57 | 3.57
x1 = 0.1859 | – | 3.86 | 3.86 | 3.86 | 3.86 | 3.86 | 3.86 | 3.86 | 3.86 | 3.86
x1 = 0.2493 | – | 3.89 | 3.9 | 3.9 | 3.9 | 3.9 | 3.9 | 3.9 | 3.9 | 3.9
x1 = 0.3029 | – | 3.88 | 3.88 | 3.88 | 3.88 | 3.88 | 3.88 | 3.88 | 3.88 | 3.88
x1 = 0.3845 | – | 3.74 | 3.74 | 3.74 | 3.74 | 3.74 | 3.74 | 3.74 | 3.74 | 3.74
x1 = 0.4985 | – | 3.46 | 3.46 | 3.46 | 3.46 | 3.46 | 3.46 | 3.46 | 3.46 | 3.46
x1 = 0.6954 | – | 2.99 | 2.99 | 2.99 | 2.99 | 2.99 | 2.99 | 2.99 | 3 | 3
x1 = 0.9013 | 2.633 | 2.633 | 2.63 | 2.63 | 2.63 | 2.63 | 2.63 | 2.63 | 2.63 | 2.63
x1 = 1 | 2.529 | 2.529 | 2.529 | 2.529 | 2.529 | 2.529 | 2.529 | 2.529 | 2.529 | 2.529

Settings | mass density [kg/m3]
x1 = 0.0987 | 1082.02
x1 = 0.1859 | 1067.9
x1 = 0.3029 | 1051.93
x1 = 0.4985 | 1031.43
x1 = 0.6954 | 1016.21
x1 = 0.9013 | 1004.23
x1 = 1 | 999.525
